Values after ≈ are worked out from the molar mass of the structure shown. Where a name gives a salt, the structure may show the parent alone.
Legend:
NCI-H446 = test: Cytotoxicity against human NCI-H446 cells by SRB assay; assay type: functional, cell-based
ASPC1 = test: Cytotoxicity against human ASPC1 cells by SRB assay; assay type: functional, cell-based
[1] = Cytotoxicity against human H446/EP cells by SRB assay; assay type: functional, cell-based
Bacillus subtilis = test: Antibacterial activity against Bacillus subtilis ATCC 6051 assessed as bacterial growth inhibition; assay type: functional
Bacillus cereus = test: Antibacterial activity against Bacillus cereus ATCC 4342 assessed as bacterial growth inhibition; assay type: functional
K562 = test: Cytotoxicity against human K562 cells by MTT assay; assay type: functional, cell-based
MDA-MB-231 = test: Cytotoxicity against human MDA-MB-231 cells by SRB assay; assay type: functional, cell-based
Pseudomonas aeruginosa = test: Antibacterial activity against Pseudomonas aeruginosa ATCC 27853 assessed as bacterial growth inhibition; assay type: functional
Staphylococcus aureus [2] = test: Antibacterial activity against Staphylococcus aureus ATCC 29213 assessed as bacterial growth inhibition; assay type: functional
Acinetobacter baumannii = test: Antibacterial activity against Acinetobacter baumannii AB34 assessed as bacterial growth inhibition; assay type: functional
Staphylococcus aureus [3] = test: Antibacterial activity against methicillin-resistant Staphylococcus aureus assessed as bacterial growth inhibition; assay type: functional
Staphylococcus = test: Antibacterial activity against methicillin-resistant coagulase-negative Staphylococcus assessed as bacterial growth inhibition; assay type: functional

COc1cccc2c1C(=O)c1c(O)c3c(c(O)c1C2=O)C[C@@](O)(C(=O)CO)C[C@@H]3O[C@H]1C[C@H](N)[C@H](O)[C@H](C)O1 [DOXORUBICIN HYDROCHLORIDE]
IC50 (NCI-H446): 0.6 µM | IC50 (ASPC1): 0.21 µM | IC50 [1]: 6 µM

COc1cc(O)ccc1N/N=C1/C=Cc2cccc(O)c2C1=O
IC50 (NCI-H446): > 15 µM | MIC (Bacillus subtilis): 128 µg/mL (≈ 412 µM) | MIC (Bacillus cereus): 128 µg/mL (≈ 412 µM) | IC50 (ASPC1): > 15 µM | IC50 (K562): > 15 µM | IC50 (MDA-MB-231): > 15 µM | MIC (Pseudomonas aeruginosa): > 150 µg/mL | MIC (Staphylococcus aureus [2]): 128 µg/mL (≈ 412 µM) | IC50 [1]: > 15 µM | MIC (Acinetobacter baumannii): > 150 µg/mL | MIC (Staphylococcus aureus [3]): 128 µg/mL (≈ 412 µM) | MIC (Staphylococcus): 128 µg/mL (≈ 412 µM)

O=C(O)c1cn(C2CC2)c2cc(N3CCNCC3)c(F)cc2c1=O [CIPROFLOXACIN]
MIC (Bacillus subtilis): 0.63 µg/mL (≈ 1.9 µM) | MIC (Bacillus cereus): 0.063 µg/mL (≈ 0.19 µM) | MIC (Acinetobacter baumannii): 16 µg/mL (≈ 48.3 µM) | MIC (Staphylococcus): 4 µg/mL (≈ 12.1 µM)

COc1cc(O)ccc1N/N=C1/C=Cc2cc(O)cc(O)c2C1=O
IC50 (NCI-H446): > 15 µM | MIC (Bacillus subtilis): 128 µg/mL (≈ 392 µM) | MIC (Bacillus cereus): 128 µg/mL (≈ 392 µM) | IC50 (ASPC1): > 15 µM | IC50 (K562): > 15 µM | IC50 (MDA-MB-231): > 15 µM | MIC (Pseudomonas aeruginosa): > 150 µg/mL | MIC (Staphylococcus aureus [2]): 128 µg/mL (≈ 392 µM) | IC50 [1]: > 15 µM | MIC (Acinetobacter baumannii): > 150 µg/mL | MIC (Staphylococcus aureus [3]): 64 µg/mL (≈ 196 µM) | MIC (Staphylococcus): 64 µg/mL (≈ 196 µM)

COc1cc(O)ccc1N/N=C1/C(=O)[C@@](C)(OC(=O)c2c(C)cc(O)cc2O)C(=O)C2=C1C=C(/C=C/C(=O)O)OC2
IC50 (NCI-H446): 10.2 µM | MIC (Bacillus subtilis): > 150 µg/mL | MIC (Bacillus cereus): > 150 µg/mL | IC50 (ASPC1): > 15 µM | IC50 (K562): > 15 µM | IC50 (MDA-MB-231): > 15 µM | MIC (Pseudomonas aeruginosa): > 150 µg/mL | MIC (Staphylococcus aureus [2]): 64 µg/mL (≈ 113 µM) | IC50 [1]: > 15 µM | MIC (Acinetobacter baumannii): > 150 µg/mL | MIC (Staphylococcus aureus [3]): > 150 µg/mL | MIC (Staphylococcus): > 150 µg/mL

COc1cc(O)ccc1N/N=C1\C(=O)C=C(Cc2ccccc2)NC1=O
IC50 (NCI-H446): 4.1 µM | MIC (Bacillus subtilis): > 150 µg/mL | MIC (Bacillus cereus): > 150 µg/mL | IC50 (ASPC1): > 15 µM | IC50 (K562): > 15 µM | IC50 (MDA-MB-231): > 15 µM | MIC (Pseudomonas aeruginosa): > 150 µg/mL | MIC (Staphylococcus aureus [2]): 32 µg/mL (≈ 91.1 µM) | IC50 [1]: > 15 µM | MIC (Acinetobacter baumannii): > 150 µg/mL | MIC (Staphylococcus aureus [3]): > 150 µg/mL | MIC (Staphylococcus): > 150 µg/mL

Reference: ChEMBL document CHEMBL5634179, “Phenylhydrazone Alkaloids from the Deep-Sea Cold Seep Derived Fungus Talaromyces amestolkiae HDN21-0307” (J Nat Prod, 2024)
